Source: patent publication US20210253528A1, “CHEMICAL COMPOUNDS” (GLAXOSMITHKLINE INTELLECTUAL PROPERTY DEVELOPMENT LIMITED, priority 2018, published 2021)

Test system: ATF4 translation
Experiment: ATF4 Cell Based Assay (ATF4 reporter assay, NanoLuc luciferase fused to ATF4 5'-UTR, thapsigargin-induced stress)
Details: SH-SY5Y-ATF4-NanoLuc cells, 200 nM thapsigargin, overnight (typically 19 hours); average of a set of two or more experimental runs; read-out: average ATF4 pathway inhibitory activity IC50
Description: The ATF4 reporter assay measures the effect of thapsigargin-induced cellular stress on ATF4 expression. For this reporter assay, a stable cell line was created by transfecting SH-SY5Y cells with a plasmid containing the NanoLuc® luciferase gene fused to the 5′-UTR of ATF4, under the control of the CMV promoter. The ATF4 5′-UTR contains two open reading frames which mediate the cellular stress-dependent translation of the reporter gene. Clones stably expressing the reporter construct were isolated and selected based on the luminescence response to thapsigargin and inhibition of this signal by test compounds. Briefly, SH-SY5Y-ATF4-NanoLuc cells were challenged with thapsigargin to determine the stress effect with or without test compounds. Cells were propagated in DMEM/F12 growth media containing 10% FBS (Invitrogen 10999-141) and 0.5 mg/mL geneticin (Corning 30-234-CR). Aliquots of cells were cryopreserved in dialyzed FBS containing 10% DMSO.
Test compounds were prepared in neat DMSO at a concentration of 10 mM. Assay plates were prepared by adding 250 nL of compound stock solution to test wells in a 384-well white tissue culture-treated plate (Greiner 781073). For inhibition curves, compounds were diluted using a three-fold serial dilution and tested at 11 concentrations (10 μM-0.17 nM).
Aliquots of frozen cells were thawed with a 37C water bath. The cells were washed using DMEM/F12 (1:1) (1×) (Gibco 11039-021). The cells were re-suspended in the DMEM/F12 and the suspension was counted. A final suspension of 7.5e5 cells/ml was prepared.
A volume of 20 uL of cell suspension was added to compound plates (15K cells/well). Cells were incubated for 1 hour at 37° C. A volume of 5 μL of 1 uM Thapsigargin solution was added to each well, resulting in a final concentration of 200 nM. Assay plates were then incubated at 37 C overnight, typically for 19 hours.
The measurement of luciferase produced by the ATF4 constructs was measured using Nano-Glo Luciferase Assay reagent, Promega N1150. (The components of the Promega kit are: Nano-Glo® Luciferase Assay Substrate, N113C, Nano-Glo® Luciferase Assay Buffer, N1128.) The buffer is brought to room temperature, and a solution of 50:1 buffer:substrate were prepared. The cell plates were equilibrated to room temperature. A volume of 20 microliters/well of the mixed Nano-Glo reagent were dispensed into assay and control wells. The plates were read on a Viewlux plate reader.

| IC50 | Compound |
| --- | --- |
| 79 nM | O=C(COc1ccc(Cl)c(C(F)(F)F)c1)NC12CC(COC(=O)Nc3ccc(Cl)c(F)c3)(C1)C2 [Example 8a, (3-(2-(4-chloro-3-(trifluoromethyl)phenoxy)acetamido)bicyclo[1.1.1]pentan-1-yl)methyl (4-chloro-3-fluorophenyl)carbamate] |
| 158 nM | O=C(COc1ccc(F)c(F)c1)NC12CC(COC(=O)Nc3ccc(F)c(F)c3)(C1)C2 [Example 16, (3-(2-(3,4-difluorophenoxy)acetamido)bicyclo [1.1.1]pentan-1-yl)methyl (3,4-difluorophenyl) carbamate] |
| 10 nM | O=C(COc1ccc(Cl)cc1)NC12CC(CNC(=O)Nc3ccc(Cl)cc3)(C1)C2 [Example 4, 2-(4-Chlorophenoxy)-N-(3-((3-(4-chlorophenyl)ureido)methyl)bicyclo[1.1.1]pentan-1-yl)acetamide] |
| 25 nM | O=C(COc1ccc(Cl)c(F)c1)NC12CC(COC(=O)Nc3ccc(Cl)c(Cl)c3)(C1)C2 [Example 10, (3-(2-(4-chloro-3-fluorophenoxy)acetamido)bicyclo [1.1.1]pentan-1-yl)methyl (3,4-dichlorophenyl) carbamate] |
| 126 nM | O=C(COc1ccc(Cl)cc1)NC12CC(CNC(=S)Nc3ccc(Cl)cc3)(C1)C2 [Example 6a, 2-(4-chlorophenoxy)-N-(3-((3-(4-chlorophenyl)thioureido)methyl)bicyclo[1.1.1]pentan-1-yl)acetamide] |
| 6 nM | O=C(COc1ccc(Cl)cc1)NC12CC(CNC(=O)Nc3ccc(Cl)c(Cl)c3)(C1)C2 [Example 22, 2-(4-chlorophenoxy)-N-(3-((3-(3,4-dichlorophenyl)ureido)methyl)bicyclo[1.1.1]pentan-1-yl)acetamide] |
| 80 nM | O=C(COc1ccc(Cl)c(F)c1)NC12CCC(COC(=O)Nc3ccc(Cl)c(F)c3)(C1)C2 [Example 26, (4-(2-(4-chloro-3-fluorophenoxy)acetamido)bicyclo[2.1.1]hexan-1-yl)methyl (4-chloro-3-fluorophenyl) carbamate] |
| 25 nM | O=C(COc1ccc(Cl)cc1)NC12CC(COC(=O)Nc3ccc(Cl)cc3)(C1)C2 [Example 1, (3-(2-(4-Chlorophenoxy)acetamido)bicyclo[1.1.1]pentan-1-yl)methyl (4-chlorophenyl)carbamate] |
| 158 nM | O=C(Nc1ccc(Cl)c(F)c1)OCC12CC(NC(=O)c3ccc4c(c3)OC(F)(F)O4)(C1)C2 [Example 19, (3-(2,2-difluorobenzo[d] [1,3]dioxole-5-carboxamido)bicyclo[1.1.1]pentan-1-yl)methyl (4-chloro-3-fluorophenyl) carbamate] |
| 1260 nM | O=C(CNc1ccc(Cl)cc1)NC12CC(COC(=O)Nc3ccc(Cl)c(F)c3)(C1)C2 [Example 18, (3-(2-((4-chlorophenyl)amino)acetamido)bicyclo [1.1.1]pentan-1-yl) methyl (4-chloro-3-fluorophenyl carbamate] |
| 79 nM | O=C(COc1ccc(F)cc1)NC12CC(COC(=O)Nc3ccc(Cl)c(F)c3)(C1)C2 [Example 14, (3-(2-(4-fluorophenoxy)acetamido)bicyclo [1.1.1]pentan-1-yl)methyl (4-chloro-3-fluorophenyl) carbamate] |
| 25 nM | O=C(COc1ccc(Cl)c(F)c1)NC12CC(COC(=O)Nc3ccc(Cl)cc3)(C1)C2 [Example 3, (3-(2-(4-chloro-3-fluorophenoxy)acetamido)bicyclo[1.1.1]pentan-1-yl)methyl (4-chlorophenyl)carbamate] |
| 32 nM | O=C(COc1ccc(Cl)c(Cl)c1)NC12CC(COC(=O)Nc3ccc(Cl)cc3)(C1)C2 [Example 12, (3-(2-(3,4-dichlorophenoxy)acetamido)bicyclo [1.1.1]pentan-1-yl)methyl (4-chlorophenyl) carbamate] |
| 8 nM | O=C(COc1ccc(Cl)c(F)c1)NC12CC(CNC(=O)Nc3ccc(Cl)c(Cl)c3)(C1)C2 [Example 23, 2-(4-chloro-3-fluorophenoxy)-N-(3-((3-(3,4-dichlorophenyl)ureido)methyl)bicyclo[1.1.1]pentan-1-yl)acetamide] |
